Measurements from patent US20210308211A1, “METHOD OF TREATING VIRAL INFECTIONS” (priority 2020, published 2021).
“And” between values parts separate entries of the source, which are not always exact repeats. Identical values can stand only once. Non-standard residues stand in square brackets, D forms with d. Residues, ends and D or L forms follow the SMILES beside them. pS = N[C@@H](COP(=O)(O)O)C(=O)O

Test system: Balb/c mice
Test: 31-day HDM-induced asthma model, BAL cell counts
Format: in vivo, mouse
Conditions: for B cells / DCs / Eosinophils / Macrophages / Neutrophils / T cells / Total cells: BAL, per mouse
Experimental: The aim of this study was to evaluate the effect of the P140 phosphopeptide administered systemically (intravenously) in a 31-day model of HDM-induced asthma in mice. The P140 phosphopeptide was solubilized in sterile water (Braun) and 10x concentrate sterile saline was added to adjust osmolarity to 300 mosm. Osmolarity was controlled with a micro osmometer (Löser, type 15) and validated (303 mosm). The P140 phosphopeptide was used in vivo at the dose of 4 mg/kg by intravenous (i.v.) routes. Control animals received equivalent volumes (2 ml/kg) of saline (Table 8).
Nine-week-old male Balb/c mice were sensitized by intranasal (i.n.) administration of HDM extract (Stallergenes): 1 μg in 25 μl saline on days 0, 1, 2, 3, 4, and 10 μg on days 14 and 21. Mice were challenged by i.n. administration of HDM (1 μg) and/or saline on days 28, 29 and 30. Mice were treated by i.v. injection (2 ml/kg) of P140 or solvent on day 25 (see FIG. 12).
BAL was performed after airway responsiveness measurement twenty-four hours after HDM challenge as described (Daubeuf et al. 2012). Mice were anaesthetized IP (Ketamine 150 mg/kg—Xylasine 10 mg/kg). Blood was collected from the heart, centrifuged at 10,000 g for 2 min and serum stored at −20° C.
After semi-excision of the trachea, a plastic cannula was inserted, and airspace washed with 0.5 ml of 0.9% NaCl injected with a 1 ml syringe. This procedure was performed 10 times. The initial concentrated supernatant of the 2 first lavages (volume=2×0.5 ml administered, approximately 0.5 ml recovered) was collected for cytokine measurements. The remaining BAL fluid was centrifuged (300 g for 5 min, 4° C.), and cell pellets pooled. The cell pellet was suspended in 500 μl of 0.9% NaCl and used for total cell counts evaluated on a Muse® Cell Analyser (Millipore). Differential cell counts were assessed by flow cytometry (LSRII® cytometer, BD Bioscience). BAL cells were added with FCblock (0.5 μl, 553142, BD Bioscience) in a black microplate, incubated for 20 min at room temperature. Then, marker antibodies were added: CD11c-FITC (557400, BD bioscience), Gr-1-PeeFluor610 (61-5931-82, eBioscience), F4/80-PE (12-4801-82, eBioscience), CD11b-APC-Cy7 (557657, BD bioscience), CD45-AlexaFluor700 (103128, BioLegend), CD3-BV605 (564009, BD bioscience), CD19-PE-Cy7 (552854, BD bioscience). Antibodies were incubated with BAL cells for 30 min at room temperature before DAPI (5 μl, BD bioscience) addition, and flow cytometry was performed immediately.
All mice were sensitized to HDM on days 0, 1, 2, 3, 4, 14, 21, and challenged either with saline ([…]) or HDM (challenge with allergen). Results are presented as means±SEM. Differences between groups were tested for statistical significance using Student's t test for inflammatory cells and a two-way ANOVA followed by Bonferroni post-test for airway responses.

[1] = HDM + P140 (i.v. 4 mg/kg day 25, HDM-challenged)
[2] = P140 i.v. 4 mg/kg day 25, HDM-sensitized, saline-challenged (chronic asthma)
[3] = chronic asthma (saline challenge), 4 mg/kg i.v. day 25, BAL, non-significant
[4] = chronic asthma (saline challenge), 4 mg/kg i.v. day 25, BAL, p<0.05

Compound: CC[C@H](C)[C@H](NC(=O)[C@H](Cc1ccccc1)NC(=O)[C@H](C)NC(=O)[C@H](Cc1ccc(O)cc1)NC(=O)CNC(=O)[C@H](CCCNC(=N)N)NC(=O)[C@@H]1CCCN1C(=O)[C@H](CCCCN)NC(=O)CNC(=O)[C@H](COP(=O)(O)O)NC(=O)[C@H](CCCNC(=N)N)NC(=O)[C@H](CCCCN)NC(=O)[C@H](CO)NC(=O)[C@H](Cc1ccc(O)cc1)NC(=O)[C@@H](NC(=O)[C@H](CCSC)NC(=O)[C@H](Cc1c[nH]cn1)NC(=O)[C@@H](NC(=O)[C@@H](N)CCCNC(=N)N)[C@@H](C)CC)C(C)C)C(=O)N[C@@H](CCC(=O)O)C(=O)N[C@@H](Cc1ccc(O)cc1)C(=O)O [Compound P140] (H-RIHMVYSKR[pS]GKPRGYAFIEY-OH; N-terminus and C-terminus assumed)
- B cells [1]: 59092 and 102246 and 42085 and 25443 and 116814 and 115000 and 53947 and 170980
- DCs [1]: 1034 and 2238 and 1793 and 242 and 586 and 1350 and 733 and 1928
- Eosinophils [1]: 955824 and 1404942 and 636065 and 342046 and 1283190 and 1036803 and 538210 and 1010686
- Macrophages [1]: 58705 and 118771 and 314326 and 126002 and 34364 and 38709 and 29121 and 73491
- Neutrophils [1]: 606700 and 510027 and 500004 and 147616 and 371317 and 487119 and 284503 and 24426
- T cells [1]: 400329 and 735865 and 383074 and 243813 and 469834 and 502985 and 334784 and 1056303
- Total cells [1]: 2140000 and 2992000 and 2190000 and 1010000 and 2310000 and 2220000 and 1270000 and 2410000
- B cells [2]: 2297 and 44688 and 22879 and 11101 and 7660
- DCs [2]: 0 and 484 and 461 and 319 and 160
- Eosinophils [2]: 124514 and 450346 and 448074 and 205568 and 239527
- Macrophages [2]: 130734 and 267685 and 360987 and 177815 and 73725
- Neutrophils [2]: 2584 and 35734 and 23986 and 34836 and 2394
- T cells [2]: 57711 and 323523 and 294011 and 208439 and 86810
- Total cells [2]: 448000 and 1390000 and 1510000 and 815000 and 484000
- Inflammatory cell recruitment in BAL (in words) (HDM-challenged mice, in comparison to the solvent group): no effect
- Number of B cells, change vs solvent group [3]: −40%
- Number of eosinophils, change vs solvent group [3]: −25%
- Number of macrophages, increase vs solvent group [4]: 4.5 fold
- Number of neutrophils, change vs solvent group [4]: −71%
